Assay results taken from patent publication US20250009694A1, “METHODS AND PHARMACEUTICAL COMPOSITIONS FOR REPAIRING INTESTINAL MUCOSAL” (INSTITUT NATIONAL DE LA SANTÉ ET DE LA RECHERCHE MÉDICALE, priority 2021, published 2025).

Test system: DSS-colitis in WT mice
Assay: DSS-induced acute colitis in WT C57BL/6 mice after pre-treatment
Format: in vivo, mouse
Details: CEA alone, Pan alone or coadministration

Compound | influence on DSS-colitis, single or combined administration
CC(C)(CO)[C@@H](O)C(=O)NCCC(=O)O [Pan, 3-[(2R)-(2,4-Dihydroxy-3,3-dimethylbutanoyl)amino]propanoic acid] | delayed colitis development
NCCS [CEA, 2-aminoethanethiol] | poor influence
